Results as given in patent publication US8821875B2, “Pharmaceutical composition comprising antibodies against catalase and superoxide dismutase for tumor therapy” (Universitaetsklinikum Freiburg, priority 2011, dated 2014).

Assays:
[1] = test system: human Ewing's sarcoma line SKN-MC; assay: Induction of apoptosis in Ewing's sarcoma line SKN-MC and inhibitor analysis; assay type: cell-based; details: 3 hours, inhibitor concentrations; for effect of inhibitor on anti-catalase-induced apoptosis: FIG. 13A; for effect of inhibitor on anti-SOD-induced apoptosis: FIG. 13B
Experimental: To 12 500 cells of the human neuroblastoma line SHEP and the human Ewing's sarcoma line SKN-MC in […] EMEM plus 5% FBS the given concentrations of anti-catalase and anti-SOD, respectively, were added. The percentages of apoptotic cells were determined after 5 hours (SHEP) and 5.5 hours (SKNMC), respectively.
To 10 000 cells of the human Ewing's sarcoma line SKN-MC in […] EMEM plus 5% FBS the given inhibitors and the concentrations of anti-catalase and anti-SOD, respectively, plotted in the abscissa were added. The percentages of apoptotic cells were determined after 3 hours.
Inhibitors: 50 mM taurine (HOCl scavenger); […] (peroxynitrite decomposition catalyst); 1000 U/ml catalase from ox liver; 40 mM MnTE2PyP(SOD mimetic); 90 U/ml MnSOD; 20 mM 3-Br-7-nitroindazole (nNOS specific inhibitor).

MKN-45 cells [2] = assay: Inhibitor analysis of antibody-induced apoptosis in MKN-45 cells (ROS signaling); assay type: cell-based, human; details: for effect of inhibitor on apoptosis induced by monoclonal antibody against catalase: MKN-45, 2 hours, FIG. 8; for effect of inhibitor on anti-SOD-induced apoptosis: MKN-45, 6 hours, inhibitor concentrations of b79
Experimental: To 12 500 MKN-45 cells in […] RPMI 1640 medium, 10% FBS the given concentrations of the monoclonal antibodies against catalase as well as the mentioned inhibitors were added and the incubation was continued for 2 hours at 37° C., 5% CO2, before in duplicates the percentages of apoptotic cells were determined.
To 12 500 MKN-45 cells in […] RPMI 1640 medium, 10% FBS the given concentrations of the monoclonal antibodies against catalase and the given concentrations of the salen-manganese complex EUK-134 (chloro[[2,2′-[1,2-ethanediylbis[(nitrilo-κN)methylidyne]]bis[6-methoxyphenolato-κO]]]-manganese) (a catalase mimetic) were added and the incubation was continued for 2.5 hours at 37° C., 5% CO2. Subsequently, the percentage of apoptotic cells (duplicates) was determined according to the conventional apoptosis criteria membrane blebbing, nuclear condensation and/or nuclear fragmentation.
To 12 500 MKN-45 cells in […] RPMI 1640 medium, 10% FBS the given concentrations of monoclonal antibodies against SOD and the given inhibitors were added and the incubation was continued for 6 hours at 37° C., 5% CO2. Subsequently, the percentage of apoptotic cells (duplicates) was determined according to the conventional apoptosis criteria membrane blebbing, nuclear condensation, and/or nuclear fragmentation.
Inhibitors: […] FeTPPS (peroxynitrite decomposition catalyst); 75 U/ml MnSOD; 50 mM taurine (HOCl scavenger); 2.4 mM L-NAME (NOS inhibitor).

MKN-45 cells [3] = assay: Synergistic effect of anti-catalase and anti-SOD in induction of apoptosis in MKN-45 cells; assay type: cell-based, human; details: 2 mM histidine, MKN-45, 3 hours, FIG. 18
Experimental: 12 500 MKN-45 cells in […] RPMI 1640 medium, 10% FBS received the given concentrations of anti-catalase. Control batches remained free of additional batches, batches for determination of the interaction additionally received 0.5 ng/ml or 2 ng/ml anti-SOD. The percentages of apoptotic cells were determined after 5.5 hours in duplicates.
This is unexpected and of great interest, since on its basis a considerable saving of antibodies could be achieved with the same effect. So, for example the combination of 2 ng/ml anti-SOD with 2 ng/ml anti-catalase results in 80 percent of the effect that can be achieved with 125 ng/ml of anti-catalase antibodies alone. 12 500 MKN-45 cells in […] RPMI 1640 medium, 10% FBS received the given concentrations of anti-catalase (control), anti-catalase plus 2 mM histidine (singlet oxygen scavenger), anti-catalase plus 1 ng/ml anti-SOD, anti-catalase/1 ng/ml anti-SOD/2 mM histidine. The percentages of apoptotic cells are determined after 3 hours in duplicates.
12 500 MKN-45 cells in […] RPMI 1640 medium, 10% FBS received the given concentrations of the Fab fragment AbD15562 directed against catalase. […] The percentages of apoptotic cells were determined after 3 hours in duplicates.

Molecule | effect of inhibitor on anti-catalase-induced apoptosis [1] | effect of inhibitor on anti-SOD-induced apoptosis [1] | effect of inhibitor on apoptosis induced by monoclonal antibody against catalase (MKN-45 cells [2]; inhibitor concentrations) | effect of inhibitor on anti-SOD-induced apoptosis (MKN-45 cells [2]; FIG. 10) | further results
O=[N+]([O-])c1cccc2c(Br)n[nH]c12 [3-Br-7-nitro-indazole, 3-bromo-7-nitroindazole] | inhibition | inhibition |  |  | 
NCCc1ccc(S(=O)(=O)F)cc1 [AEBSF, 4-(2-aminoethyl)-benzenesulfonyl fluoride] |  |  | inhibited |  | 
COc1cccc(C=NCCN=Cc2cccc(OC)c2[O-])c1[O-].[Cl-].[Mn+3] [EUK-134] |  |  |  |  | effect on anti-catalase-induced apoptosis (MKN-45 cells [2]; 0.25 μM EUK-134, middle concentration range of the antibody, FIG. 9): stronger inhibition; effect on anti-catalase-induced apoptosis (MKN-45 cells [2]; 0.25 mM EUK-134, lower concentration range of the antibodies, FIG. 9): significant increase in apoptosis; effect on concentration curve of anti-catalase-induced apoptosis (MKN-45 cells [2]; 0.06 and 0.125 mM EUK-134, MKN-45, 2.5 hours, FIG. 9): change the optimum curve into a plateau curve; effect on anti-catalase-induced apoptosis (MKN-45 cells [2]; two next higher concentrations of EUK-134, middle concentration range of the antibody, FIG. 9): complete inhibition of the HOCl pathway
Cl.O=S(=O)([O-])c1ccc(-c2c3nc(c(-c4ccc(S(=O)(=O)O)cc4)c4ccc([nH]4)c(-c4ccc(S(=O)(=O)O)cc4)c4nc(c(-c5ccc(S(=O)(=O)O)cc5)c5ccc2[nH]5)C=C4)C=C3)cc1.[Fe] [FeTPPS, 5-, 10-, 15-, 20-tetrakis(4-sulfonatophenyl)porphyrinato iron(III) chloride] | inhibition | inhibition | inhibited in the lower concentration range of the antibody | inhibition | 
COC(=O)[C@@H](N)CCCNC(=N)N[N+](=O)[O-].Cl [L-NAME, N-ω-nitro-L-arginine methylester hydrochloride] |  |  | inhibited in the lower concentration range of the antibody | inhibition | 
CC[n+]1ccccc1-c1c2nc(c(-c3cccc[n+]3CC)c3ccc([n-]3)c(-c3cccc[n+]3CC)c3nc(c(-c4cccc[n+]4CC)c4ccc1[n-]4)C=C3)C=C2.[Cl-].[Cl-].[Cl-].[Cl-].[Cl-].[Mn+3] [MnTE2PyP, Mn(III) meso-tetrakis(N-ethyl-2-pyridyl)porphyrin pentachloride] | inhibition | inhibition |  |  | 
N[C@@H](Cc1c[nH]cn1)C(=O)O [histidine] |  |  |  |  | blocking of the supra-optimum drop of the concentration-dependent curves (MKN-45 cells [3]): can be blocked; blocking of the synergistic effect between anti-SOD and anti-catalase (MKN-45 cells [3]): cannot be blocked
NCCS(=O)(=O)O [taurine] | lacking inhibitory effect | lacking inhibitory effect |  | lacking inhabitability | effect on the NO/peroxynitrite pathway in anti-SOD-induced apoptosis (MKN-45 cells [2]; MKN-45, 50 mM taurine, FIG. 10): enhancing effect; effect of inhibitor on apoptosis induced by monoclonal antibody against catalase (MKN-45 cells [2]; higher antibody concentration (HOCl pathway)): inhibitory effect
exogenous catalase: 1000 U/ml catalase from ox liver, added exogenously (protein, UniProt P00432 2-527, looked up) Catalase: ADNRDPASDQMKHWKEQRAAQKPDVLTTGGGNPVGDKLNSLTVGPRGPLLVQDVVFTDEMAHFDRERIPERVVHAKGAGAFGYFEVTHDITRYSKAKVFEHIGKRTPIAVRFSTVAGESGSADTVRDPRGFAVKFYTEDGNWDLVGNNTPIFFIRDALLFPSFIHSQKRNPQTHLKDPDMVWDFWSLRPESLHQVSFLFSDRGIPDGHRHMNGYGSHTFKLVNANGEAVYCKFHYKTDQGIKNLSVEDAARLAHEDPDYGLRDLFNAIATGNYPSWTLYIQVMTFSEAEIFPFNPFDLTKVWPHGDYPLIPVGKLVLNRNPVNYFAEVEQLAFDPSNMPPGIEPSPDKMLQGRLFAYPDTHRHRLGPNYLQIPVNCPYRARVANYQRDGPMCMMDNQGGAPNYYPNSFSAPEHQPSALEHRTHFSGDVQRFNSANDDNVTQVRTFYLKVLNEEQRKRLCENIAGHLKDAQLFIQKKAVKNFSDVHPEYGSRIQALLDKYNEEKPKNAVHTYVQHGSHLSAREKANL | compensated | compensated |  |  | 
